In PubChem BioAssay AID743359 (Molecular Libraries Program, Specialized Chemistry Center, …, 2014):
pIC50: −log10 of the molar value. Active and inactive are the calls of the source.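 Rule for the calls: active = compounds whose half-maximal inhibitory concentration IC50 is 20 µM or lower; inactive = the rest.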

Test system: isolated mouse liver mitochondria, Ca2+ swelling, A540 20 min
Assay: mitochondrial swelling inhibition, absorbance readout – dry powder samples, uHTS hits, dose response (AID 743359)

Row | Structure (SMILES) | IC50 | pIC50
1 | COc1ccc(Cl)cc1C(=O)Nc1ccc(N2CCCCC2)cc1 | > 50 µM (inactive) | 
2 | CN1CCN(CCc2ccc(NS(=O)(=O)c3cc(Cl)cc(Cl)c3)cc2)CC1 | 47.8 µM (inactive) | 
3 | COc1ccc(Cl)c(C(=O)Nc2ccc(CCN3CCN(C(=O)OC(C)(C)C)CC3)cc2)c1 | > 50 µM (inactive) | 
4 | COc1ccc(Cl)cc1C(=O)Nc1ccc(CCN2CCN(C)CC2)cc1 |  | 4.97
5 | O=C(Nc1ccc(CN2CCCCC2)cc1)c1cc(OCc2ccccc2)ccc1Cl |  | 5.61
6 | CN1CCN(c2ccc(NS(=O)(=O)c3ccc(F)c(Cl)c3)cc2)CC1 | > 50 µM (inactive) | 
7 | COc1ccc(C(=O)CCN2CCCC(C)C2)cc1 (centres undefined) | 38 µM (inactive) | 
8 | COc1ccc(Cl)cc1C(=O)Nc1ccc(CN2CCN(C(=O)OC(C)(C)C)CC2)cc1 |  | 4.83
9 | O=C(Nc1ccccc1C(F)(F)F)c1cc(-c2ccccc2)on1 | > 50 µM (inactive) | 
10 | O=S(=O)(Nc1ccc(CN2CCCCC2)cc1)c1cccc(Cl)c1 | > 50 µM (inactive) | 
11 | CN1CCN(c2ccccc2NC(=O)c2ccc(OCc3ccccc3)cc2)CC1 |  | 5.64
12 | CN1CCN(c2ccc(NS(=O)(=O)c3cccc(Cl)c3)cc2)CC1 | > 50 µM (inactive) | 
13 | COc1ccc(Cl)cc1S(=O)(=O)Nc1ccc(CN2CCCCC2)cc1 | > 50 µM (inactive) | 
14 | O=C(Nc1ccc(CN2CCCCC2)cc1)c1cccc(Cl)c1 |  | 4.82
15 | COc1ccc(Cl)c(C(=O)Nc2ccc(CCN3CCCCC3)cc2)c1 | > 50 µM (inactive) | 
16 | CC1(C)CCN(CCCC(=O)c2ccc(Br)cc2)CC1 |  | 4.86
17 | COc1ccc(/C=C/C(=O)Nc2cccc(Cl)c2)cc1O |  | > 6.41
18 | CC1CCN(CCCC(=O)c2ccc(Br)cc2)CC1 | 40.9 µM (inactive) | 
19 | CN1CCN(Cc2ccc(NS(=O)(=O)c3cccc(Cl)c3)cc2)CC1 | > 50 µM (inactive) | 
20 | COc1ccc(Cl)cc1C(=O)Nc1ccc(CCN2CCOCC2)cc1 |  | 4.86
21 | COc1cccc(-c2cc(C(=O)Nc3cc(Cl)ccc3C)no2)c1 | 40 µM (inactive) | 
22 | COc1ccc(Cl)cc1S(=O)(=O)Nc1ccc(CN2CCN(C)CC2)cc1 | > 50 µM (inactive) | 
23 | CN1CCN(Cc2ccc(NS(=O)(=O)c3ccc(F)c(Cl)c3)cc2)CC1 | > 50 µM (inactive) | 
24 | CCc1ccccc1NC(=O)c1cc(-c2ccccc2)on1 | > 50 µM (inactive) | 
25 | CN1CCN(CCc2ccc(NC(=O)c3cccc(OCc4ccccc4)c3)cc2)CC1 |  | 5.42

Row | Structure (SMILES) | IC50 | pIC50
26 | Cc1cc(NC(=O)c2cc(-c3ccc(F)cc3)on2)no1 | > 50 µM (inactive) | 
27 | COc1ccc(NC(=O)c2cc(-c3ccc(Cl)cc3)on2)cc1Cl | > 50 µM (inactive) | 
28 | O=C(Nc1cccc(Cl)c1)c1cc(-c2cccc(O)c2)on1 |  | > 6.41
29 | Cc1c(Cl)cccc1NC(=O)c1cc(-c2cccc(O)c2)on1 |  | > 6.41
30 | COc1ccccc1C(=O)Nc1ccc(C(=O)N2CCCCC2)cc1 | > 50 µM (inactive) | 
31 | CN1CCN(CCc2ccc(NS(=O)(=O)c3ccc(F)c(Cl)c3)cc2)CC1 | > 50 µM (inactive) | 
32 | CCN(C(=O)c1cc(Cl)ccc1OC)c1ccccc1 | > 50 µM (inactive) | 
33 | COc1ccc(Cl)cc1C(=O)Nc1ccc(CCN2CCCCC2)cc1 |  | 5.22
34 | Cc1cc(NC(=O)c2ccc(-n3cnnc3)cc2)no1 | > 50 µM (inactive) | 
35 | COc1ccc(Cl)c(C(=O)Nc2ccc(CN3CCN(C(=O)OC(C)(C)C)CC3)cc2)c1 | 18.2 µM (inactive) | 
36 | CN1CCN(c2ccc(NS(=O)(=O)c3cc(Cl)cc(Cl)c3)cc2)CC1 | 44.9 µM (inactive) | 
37 | CN1CCN(c2ccc(Cl)cc2NC(=O)/C=C/c2cccc(F)c2)CC1 |  | 6.16
38 | Cc1ccc(-c2cc(C(=O)Nc3cccc(Cl)c3)no2)cc1 | > 50 µM (inactive) | 
39 | O=C(Nc1ccc(OCc2ccccc2)c(Cl)c1)c1cc(-c2cccc(O)c2)on1 | > 50 µM (inactive) | 
40 | COc1ccc(NC(=O)c2cc(-c3cccc(O)c3)on2)cc1Cl |  | > 6.41
41 | O=C(Nc1ccc(Br)cc1)c1cc(C2CC2)on1 |  | 5.20
42 | COc1ccc(Cl)cc1C(=O)Nc1ccc(CN2CCOCC2)cc1 |  | 4.82
43 | O=C(Nc1ccc(CN2CCCCC2)cc1)c1cc(Cl)ccc1O | > 50 µM (inactive) | 
44 | O=C(Nc1cc(Cl)ccc1F)c1cc(-c2cccc(O)c2)on1 |  | > 6.41
45 | C[C@@H]1CCC[C@H](C)N1CCCC(=O)c1ccc(Br)cc1 | > 50 µM (inactive) | 
46 | O=C(Nc1cc(Cl)ccc1Cl)c1cc(-c2cccc(O)c2)on1 |  | 5.80
47 | COc1ccc(NC(=O)c2cc(Cl)cc(Cl)c2OC)cc1 | > 50 µM (inactive) | 
48 | O=C(Nc1ccc(Cl)cc1)c1cc(-c2cccc(O)c2)on1 |  | 6.37
49 | O=S(=O)(Nc1ccc(CN2CCCCC2)cc1)c1ccc(F)c(Cl)c1 | > 50 µM (inactive) | 
50 | COc1ccc(Cl)cc1C(=O)Nc1ccc(N(C)C)cc1 |  | 4.99

Row | Structure (SMILES) | IC50 | pIC50
51 | COc1ccc(Cl)c(C(=O)Nc2ccc(CN3CCN(C)CC3)cc2)c1 | > 50 µM (inactive) | 
52 | COc1ccc(Cl)cc1C(=O)Nc1ccc(CCN2CCN(C(=O)OC(C)(C)C)CC2)cc1 |  | 4.70
53 | O=C(Nc1ccc(CN2CCCCC2)cc1)c1cccc(OCc2ccccc2)c1 |  | 6.02
54 | CN1CCN(Cc2ccc(NC(=O)c3cccc(OCc4ccccc4)c3)cc2)CC1 |  | 5.48
55 | O=C(Nc1ccccc1OCc1ccccc1)c1cc(-c2cccc(O)c2)on1 | > 50 µM (inactive) | 
56 | O=C(Nc1cccc(Cl)c1)c1cc(-c2ccc(Cl)cc2)on1 | > 50 µM (inactive) | 
57 | CN1CCN(CCc2ccc(NS(=O)(=O)c3cccc(Cl)c3)cc2)CC1 | > 50 µM (inactive) | 
58 | O=C(Nc1ccc(CN2CCCCC2)cc1)c1ccc(Cl)c(OCc2ccccc2)c1 |  | > 6.41
59 | COc1ccc(Cl)cc1C(=O)Nc1cccc(CN2CCNCC2)c1 |  | 5.32
60 | O=C(Nc1ccc(F)cc1F)c1cc(-c2ccccc2)on1 | > 50 µM (inactive) | 
61 | COc1c(Cl)cccc1NC(=O)c1cc(-c2cccc(O)c2)on1 | 27.6 µM (inactive) | 
62 | CC(C)c1cc(C(=O)Nc2ccc(F)cc2F)no1 | 24 µM (inactive) | 
63 | COc1ccc(Cl)cc1C(=O)Nc1ccccc1 | 6.35 µM (inactive) | 
64 | O=C(Nc1ccc(CCN2CCCCC2)cc1)c1cccc(OCc2ccccc2)c1 |  | 5.64
65 | COc1ccc(Cl)c(C(=O)Nc2ccc(CCN3CCOCC3)cc2)c1 | > 50 µM (inactive) | 
66 | COc1ccccc1C(=O)Nc1ccc(CN2CCCCC2)cc1 | 46.5 µM (inactive) | 
67 | Cc1ccc(Cl)cc1NC(=O)c1cc(-c2cccc(O)c2)on1 |  | > 6.41
68 | O=C(Nc1ccc(Cl)cc1)c1cc(-c2ccccc2)on1 | > 50 µM (inactive) | 
69 | O=S(=O)(Nc1ccc(CN2CCCCC2)cc1)c1cc(Cl)cc(Cl)c1 | > 50 µM (inactive) | 
70 | CCCc1cc(C(=O)Nc2c(F)cc(F)cc2Br)no1 |  | 5.30
71 | COc1ccc(Cl)cc1C(=O)Nc1cccc(CN2CCN(C(=O)OC(C)(C)C)CC2)c1 | > 50 µM (inactive) | 
72 | O=S(=O)(Nc1ccc(CCN2CCCCC2)cc1)c1cccc(Cl)c1 | > 50 µM (inactive) | 
73 | COc1ccc(Cl)cc1C(=O)Nc1ccc(CN2CCCCC2)cc1 |  | 5.76
74 | Cc1ccc(NC(=O)c2cc(-c3cccc(O)c3)on2)cc1Cl |  | 6.08
75 | O=C(Nc1cccc(Cl)c1)c1cc(-c2ccccc2)on1 | 47.2 µM (inactive) | 

Row | Structure (SMILES) | IC50 | pIC50
76 | CCCc1cc(C(=O)Nc2ccc(Br)cc2)no1 | > 50 µM (inactive) | 
77 | COc1ccc(Cl)cc1C(=O)Nc1ccc(CCN2CCNCC2)cc1 |  | 5.28
78 | COc1ccc(Cl)cc1S(=O)(=O)Nc1ccc(CCN2CCN(C)CC2)cc1 | > 50 µM (inactive) | 
79 | O=C(Nc1cccc(F)c1)c1cc(-c2cccc(O)c2)on1 |  | 5.34
80 | O=C(Nc1ccc(CN2CCCCC2)cc1)c1cc(Cl)cc(OCc2ccccc2)c1 |  | > 6.41
81 | O=C(Nc1cccc(Cl)c1Cl)c1cc(-c2cccc(O)c2)on1 |  | 4.98
82 | CN1CCN(c2ccc(NC(=O)c3ccc(OCc4ccccc4)cc3)cc2)CC1 | > 50 µM (inactive) | 
83 | O=S(=O)(Nc1ccc(CCN2CCCCC2)cc1)c1cc(Cl)cc(Cl)c1 | 25.1 µM (inactive) | 
84 | COc1ccc(Cl)cc1C(=O)Nc1ccc(N2CCOCC2)cc1 | > 50 µM (inactive) | 
85 | COc1ccc(Cl)cc1S(=O)(=O)Nc1ccc(N2CCN(C)CC2)cc1 | > 50 µM (inactive) | 
86 | CN1CCN(Cc2ccc(NS(=O)(=O)c3cc(Cl)cc(Cl)c3)cc2)CC1 | 23.3 µM (inactive) | 
87 | COc1ccc(Cl)cc1C(=O)Nc1ccc(N2CCN(C)CC2)cc1 |  | 5.21
88 | CN1CCN(c2ccc(NC(=O)c3cccc(OCc4ccccc4)c3)cc2)CC1 |  | 5.72
89 | COc1ccc(Cl)cc1C(=O)Nc1ccc(CN2CCN(C)CC2)cc1 |  | 4.87
90 | O=C(Nc1cc(Cl)cc(Cl)c1)c1cc(-c2cccc(O)c2)on1 |  | > 6.41
91 | COc1ccc(Cl)c(C(=O)Nc2cccc(CN3CCN(C(=O)OC(C)(C)C)CC3)c2)c1 | > 50 µM (inactive) | 
92 | COc1ccc(Cl)cc1S(=O)(=O)Nc1ccc(CCN2CCCCC2)cc1 | > 50 µM (inactive) | 
93 | COc1ccc(Cl)c(C(=O)Nc2ccc(CN3CCOCC3)cc2)c1 | > 50 µM (inactive) | 
94 | CCN(CC)c1ccc(NC(=O)c2ccc(OC)c(Cl)c2)cc1 | > 50 µM (inactive) | 
95 | O=S(=O)(Nc1ccc(CCN2CCCCC2)cc1)c1ccc(F)c(Cl)c1 | > 50 µM (inactive) | 
96 | COc1ccc(Cl)c(C(=O)Nc2ccc(CCN3CCN(C)CC3)cc2)c1 | > 50 µM (inactive) | 
97 | COc1ccc(Cl)cc1C(=O)Nc1ccc(CN2CCNCC2)cc1 |  | 5.65
98 | CC(C)C1CCN(CCCC(=O)c2ccc(Br)cc2)CC1 |  | 4.99
99 | O=C(Nc1ccc(N2CCCCC2)cc1)c1cccc(OCc2ccccc2)c1 | > 50 µM (inactive) | 
